In US11752127B2, “Methods and compositions for treatment of anxiety in animals” (CANOPY GROWTH CORPORATION, priority 2019, dated 2023):

Key:
[1] = Blood CBD and 7-COOH-CBD levels pre- and post-car ride (mass spectrometry); format: in vivo, Beagle dogs
Experimental: (§1) Anxiety behavioral data measures were recorded, as was serum cortisol levels (an anxiety/stress-related biomarker), heart rate and blood cannabidiol content. Subjects were dosed once during each arm, approximately four (4) hours prior to the car ride test. Blood samples for measurements of cortisol and CBD were taken on two occasions during each arm. The first was on day 1, a no treatment day. The second was within 10 minutes (±2 minutes) following the car ride. Both blood samples were taken as closely as possible to the same time of day. Heart rate was continuously measured during the car ride. There were seven days of washout between treatment days. For the sake of scheduling, the 16 dogs were tested in two cohorts, with eight (8) dogs tested per cohort day. The test schedule that followed is outlined in Table 2.
Blood was collected for health profiling on day −8 and 2 mL and was placed into each a potassium oxalate/sodium fluoride, SST and K2EDTA tube. Whole blood collections for the purpose of cortisol and cannabidiol analysis were taken on eight occasions. Four (4) ml blood samples were collected from a suitable vein according to standard operating procedure for baseline 1 day prior to the car and 10 minutes (±2 minutes) after each car ride for cortisol and cannabidiol analysis. Prior to the baseline sample, subjects were placed in a quiet metabolic cage for 30 minutes (±2 minutes) for a more accurate reading of cortisol at rest. Two (2) ml blood were placed into a 2 ml SST tube and allowed to set until clotted. Serum was separated by centrifugation (2800-3200 rpm for 10 minutes at room temperature) and removed into a new serum blood tube. One aliquot of serum (0.5 ml) was placed into a cryovial and stored at approximately −80° C. for future analysis as necessary. […] Samples were analysed by mass spectrometry for the presence of cannabidiols and in particular CBD.
Post-car ride CBD levels were analyzed as a function of Dose using non-parametric analysis of variance.
Pre-car ride CBD levels were analyzed as a function of previous Dose using non-parametric analysis of variance. […]

[2] = test system: car ride model of fear and anxiety; assay: Car-ride model of fear and anxiety in dogs (10-minute car ride); format: in vivo, Beagle dogs; conditions: for Cortisol response to car ride: differed significantly from baseline
Experimental: A Car-Ride Model for fear and anxiety was used to assess the anxiolytic properties of a cannabidiol formulation on dog subjects. One of the objectives of this study was to determine the anxiolytic effectiveness of orally dosed CBD-enriched cannabidiol formulation at three dose levels, namely at: 4 mg/kg CBD; 12 mg/kg CBD; and 25 mg/kg CBD as compared to a placebo control in a car ride model of fear and anxiety.
Enrollment into the study was based on the subject's baseline activity response to a car ride. Twenty-four (24) Beagle Dogs were screened for car-ride induced elevation of blood cortisol. The initial screening occurred over a 10-day period. Sixteen of the 24 dogs were selected to be used in the subsequent efficacy trial. The schedule of operations for the baseline screen is outlined in Table 1.
The subsequent dose-finding efficacy trial was a blinded pre-clinical trial with sixteen (16) dogs. Dogs were allocated to four treatment groups each containing four (4) dogs based on the baseline response to the car-ride model. In the car-ride model, the dogs were placed in a travel crate secured in the back of a transport vehicle. Anxiety was assessed by monitoring behavior and heart rate during the car ride, and by blood cortisol measures after the car ride. A Williams design was used in which 3 dose levels of the drug and a placebo control were evaluated, with every dog being tested on every condition. Thus, the study had four cycles: four (4) groups of four (4) dogs each, with two (2) males and two (2) females per group, were given four (4) cycles of either one of three increasing doses of a cannabidiol-enriched liquid formulation or the vehicle (medium chain triglyceride solution without cannabidiol), each in a volume of 4 mL. Actives or placebo were administered on the fourth day of each cycle, four (4) hours (±15 minutes) before exposure to a 10-minute car ride in a controlled setting. Each dosing cycle was seven (7) days, so there were seven (7) days between doses.
as §1
Treatment conditions as follows: High Dose: 25 mg/kg CBD; Medium Dose: 12 mg/kg CBD; Low Dose: 4 mg/kg CBD; Placebo control: MCT (Medium Chain Triglyceride) solution. The animals were handled and cared for as similarly as possible throughout the study. The study used a Williams design. The experimental unit were one individual dog and the number of dogs per treatment sequence was four (4), each containing two (2) males and two (2) females.
The study was a blinded pre-clinical trial carried out in a standardized environment. Sixteen (16) dogs (8 males and 8 females) were included in the study. A Williams design, in which all test subjects receive all three dosages and one placebo were used. Four (4) groups of four (4) dogs each, with two (2) males and two (2) females per group, will be given four (4) cycles of either one of three increasing doses of a Cannabidiol-enriched liquid formulation or the vehicle (medium chain triglyceride solution without cannabidiol), each in a volume of 4 mL. Actives or placebo were administered on the fourth day of each cycle, four (4) hours (±15 minutes) before exposure to a 10-minute car ride. […]

[3] = test system: noise-induced model of fear and anxiety; assay: Noise-induced (thunderstorm) model of fear and anxiety in dogs, single dose; format: in vivo, Beagle dogs
Experimental: A Noise-Induced Model for fear and anxiety was used to assess the anxiolytic properties of a cannabidiol formulation on dog subjects. An objective of this study is to determine the anxiolytic effectiveness of an orally dosed CBD enriched cannabinoid formulation at three dose levels (25 mg/kg, 12 mg/kg, and 4 mg/kg) as compared to a placebo control in a noise-induced model of fear and anxiety.
A preliminary health screen including veterinary examinations and CBC/clinical chemistry blood work analysis was first used to select thirty-two (32) Beagle dogs for the Baseline Screening phase of this study. […] A four-arm Williams design was used, with four treatment groups of 4 animals per group. Subjects were allocated to the treatment groups (n=4) balanced for sex, serum cortisol, and behavioural (activity) response. On Days 4, 11, 18, and 25 (n=16), dogs were tested on the thunderstorm procedure after administration of one of three dose levels of test article or placebo. Anxiety was assessed by both live monitoring of specific behaviours and through post-trial monitoring of recorded video files, by continuous recording of heart rate during the test, and by analyzing serum cortisol levels after the test. Subjects were dosed once during each arm of the study, approximately 4 hours prior to the thunderstorm test. Blood was taken twice during each arm of the study including baseline phase; once for the purpose of determining resting cortisol levels, collected two days before thunderstorm procedures, and once for the purpose of determining post-thunderstorm cortisol levels as well as blood levels CBD and 7-COOH-CBD, collected 5 minutes (±2 minutes) following the test. Both blood collections were taken at about same time of day. There was a 6-day washout period between treatment days for all subjects.
On the day of testing, each group received a single dose of their assigned treatment according to Table 7 followed by a 6-day washout period prior to the next assessment Animals were dosed 4 hours (±10 minutes) prior to each thunderstorm assessment, at the same time of day on each dosing day. Subjects received either placebo (MCT oil) or CBD extract diluted to the correct concentration of either 4, 12 or 25 mg/kg with appropriate volume of MCT oil to a final volume of 4 mL for each dose. The test article was administered orally by syringe with attention to complete delivery and retention of the intended dose according to standard operating procedures. In the event that a subject vomited or regurgitated within the first 30 minutes of administration, the product was re-administered and time of re-dose was recorded. […]
The thunderstorm test was performed on Study Day −5, 4, 11, 18, and 25; this took place in the open field arena. During the 9-minute task, the first three minutes was designated as the pre-thunder interval, during which the dogs were allowed to freely explore the room in the absence of any external stimuli. During minutes 4-6 (thunder interval) a recorded thunderstorm track was played over a stereo system at approximately 105 dB. Animal behaviour was audio and video recorded for a total of 9 minutes and the following parameters assessed:
1. Distance travelled (m): the distance the animal moves within the room will be tracked and recorded in meters.
2. […] All other behaviours were considered “active” behaviours.
No stimuli were provided over the last three minutes (minutes 7-9). All behavioural parameters were measured as described for the open field test. Video files of each session were recorded to DVD and archived with the study files. […]

[4] = test system: thunderstorm noise-induced model of anxiety; assay: Thunderstorm noise-induced model of anxiety after chronic (28-day) CBD administration; format: in vivo, dogs
Experimental: The present study was conducted to evaluate the potential antianxiety effects of CBD after chronic administration using a thunderstorm model of anxiety. A placebo-controlled 28-day CBD dosing, behavioral and safety study was conducted in which the anti-anxiety behavioral effects of chronic CBD were evaluated after 7 and 21 days of CBD administration. Anxiety-related behavioral assessments were conducted using a thunderstorm noise-induced model of anxiety. Four different doses of CBD isolate (1, 2, 4 and 12 mg CBD/kg dog's body weight) were administered orally, as a liquid, once a day to fasted dogs. The primary anti-anxiety measures included blood cortisol levels, heart rate, distance traveled, head movements, global anxiety and scanning behavior.

[5] = Phase 1, 12 mg/kg CBD oral, n=4 dogs
[6] = Phase 1, 25 mg/kg CBD oral, n=4 dogs
[7] = all four phases combined, 25 mg/kg CBD oral, n=16 dogs, p=0.05

C=C(C)[C@@H]1CCC(C(=O)O)=C[C@H]1c1c(O)cc(CCCCC)cc1O [7-COOH-CBD]
7-COOH-CBD levels across the 4 dose levels ([1]; post-car ride, repeated measures ANOVA): highly significant effect of dose

C=C(C)[C@@H]1CCC(C)=C[C@H]1c1c(O)cc(CCCCC)cc1O [CBD, cannabidiol]
Dogs that lay down during the 10-minute car ride ([2]; Phase 1, 2 of 4 dogs at each of 4, 12, or 25 mg/kg CBD oral, placebo 0 of 4): 50%
Number of dogs across the CBD treatments who lay down during the car ride ([2]; Phase 1, CBD 4, 12, 25 mg/kg combined, placebo none of 4): 6 of 12 dogs
Mean heart rate, effect of treatment ([2]; baseline, placebo, 4, 12 and 25 mg/kg oral, pre-test, min 1-5, min 5-10 of car ride, repeated measures ANOVA): no other significant main effects or interactions
Post-car ride cortisol levels in female dogs ([2]; female dogs, CBD 4, 12, 25 mg/kg oral 4 h before car ride (FIG. 11)): decrease in cortisol levels
Cortisol response to car ride ([2]; high dose 25 mg/kg CBD oral): more effective in reducing the cortisol response than the placebo and low dose treatments
Cortisol response to car ride ([2]; medium dose 12 mg/kg CBD oral): more effective in reducing the cortisol response than the placebo and low dose treatments
Pre-car ride CBD levels as a function of previous dose ([1]; 7 days after previous dose, repeated measures ANOVA, 0.02 level): Previous dose effect was significant
Post-car ride CBD levels as a function of dose ([1]; oral 4, 12, 25 mg/kg CBD or placebo 4 h before car ride, non-parametric analysis of variance, p=0.0000): highly significant dose effect
Distance travelled post-thunder (minutes 7-9), placebo vs CBD ([3]; 25 mg/kg oral 4 h before test, p=0.0445, LMM with treatment and order): significantly larger with placebo than 25 mg/kg
Inactivity frequency post-thunder, placebo vs CBD ([3]; 25 mg/kg oral, p=0.0245, LMM with treatment and order): significantly smaller with placebo than 25 mg/kg
Activity during minutes 1-3 of conditioned anxiety testing ([3]; CBD 4, 12, 25 mg/kg vs placebo): no significant differences
Distance travelled during the 3-minute post-thunder interval (mean±SD) [3, 5]: 3.9±3.9 m
Reduction of distance travelled during the 3-minute post-thunder interval vs placebo [3, 5]: 72%
Distance travelled during the 3-minute post-thunder interval (mean±SD) [3, 6]: 5.5±4.0 m
Distance travelled during the 3-minute thunderstorm noise (mean±SD) [3, 6]: 17.0±8.1 m
Reduction of distance travelled during the 3-minute post-thunder interval vs placebo [3, 6]: 61%
Reduction of distance travelled during the 3-minute thunderstorm noise vs placebo [3, 6]: 29%
Distance travelled during the 3-minute post-thunder interval (mean±SD) [3, 7]: 3.5±3.9 m
Reduction of distance travelled during the 3-minute post-thunder interval vs placebo [3, 7]: 65%
Inactivity, effect of dose ([3]; repeated measures ANOVA, pre-thunder, thunder, post-thunder, p value for dose effect 0.762): no other significant main effects or interactions
Cortisol, day 21 vs day 7 ([4]; 1 and 2 mg CBD/kg oral once a day): greater decrease in cortisol on day 21 than day 7
Visual scanning ([4]; Day 7, 1 mg/kg): most reduced
Global Anxiety Scores during thunder-noise ([4]; after 7 and 21 days of treatment, all groups): decreased
Thunderstorm-induced body movements ([4]; chronic CBD administration): generally decreased
Heart rate ([4]; chronic CBD treatment 1, 2, 4, 12 mg/kg oral once a day): not affected
Global Anxiety Scores during thunder-noise, group with greatest decrease ([4]; day 7, 2 mg/kg): greatest decreases
Head movements ([4]; day 7, two lowest CBD treatment groups (1 and 2 mg/kg)): decreased by day 7
Global Anxiety Scores during thunder-noise, groups with greatest decrease ([4]; day 21, 1, 2 and 4 mg/kg): greatest decreases
Visual scanning ([4]; day 21, 1 and 2 mg/kg): most reduced
Head movements ([4]; day 21, all treatment groups): decline in head movements
Cortisol ([4]; lowest 3 doses (1, 2, 4 mg/kg) oral once a day, days 7 and 21): decline in cortisol
Anti-anxiety effects (stress biomarker, body movements, visual scanning, global anxiety scores) ([4]; three lower CBD doses (1, 2, 4 mg/kg) oral once a day): observable anti-anxiety effects
